Where no end group is shown, it is not given here.
System: rabbit esophageal circular smooth muscle tissue constructs
Assay: Real time isometric force generation of bioengineered esophageal smooth muscle constructs
Assay type: cell-based
Conditions: isometric force transducer, tissue bath 37° C., constructs taken off chitosan scaffold, stretch baseline set to zero
Text: Tubular esophageal tissue was tissue-engineered to mimic the mechanical and physiological function of a native esophagus. Several concentrically aligned esophageal circular smooth muscle tissue constructs were bioengineered using collagen hydrogel. Three-dimensional smooth muscle tissue constructs were bioengineered. Rabbit esophageal constructs were bioengineered by laying down 5×10^5 rabbit esophageal circular smooth muscle cells in collagen gel on a Sylgard-coated plate with a central post. The smooth muscle constructs were placed around a 2.5 cm long hollow chitosan tube and biodegradable surgical glue was applied between the smooth muscle constructs and along their circumference. The constructs were maintained around the scaffold in culture for 5 days. The constructs were taken off the scaffold and tested to determine cholinergic contraction in response to Acetylcholine (Ach) and relaxation in response to vasoactive intestinal peptide (VIP). An isometric force transducer (Harvard Apparatus, Holliston, Mass.) was used to record real time force generated by the constructs. The constructs were kept incubated in a warm tissue bath keeping the tissue samples at conditions of 37° C.±1° C. The bioengineered tissue constructs were taken off the scaffold at day 15 for force generation measurement. […]

Molecule | contraction (change in force generation) (FIG. 1) [μN] | relaxation (change in force generation) (FIG. 2) [μN]
CC(=O)OCC[N+](C)(C)C [Ach, Acetylcholine] | 45 | 
vasoactive intestinal peptide (HSDAVFTDNYTRLRKQMAVKKYLNSILN; ends and bridges not checked; UniProt P01282 125-152, looked up) [VIP, relaxant peptide used to test construct relaxation] |  | −35
